Results taken from US20200347043A1, “MODULATORS OF THE INTEGRATED STRESS PATHWAY” (Calico Life Sciences LLC, priority 2019, published 2020).

The molecules below were run on HEK293T cells carrying the ATF4 luciferase reporter (assay: ATF4-Luc assay (in vitro model of VWMD)). Conditions: 1 μg/mL tunicamycin, 7 hours, One Glo luminescence.
Format: cell-based, human
Procedure: In order to test exemplary compounds of the invention in a cellular context, a stable VWMD cell line was first constructed. The ATF4 reporter was prepared by fusing the human full-length ATF4 5′-UTR (NCBI Accession No. BC022088.2) in front of the firefly luciferase (FLuc) coding sequence lacking the initiator methionine as described in Sidrauski et al (eLife 2013). The construct was used to produce recombinant retroviruses using standard methods and the resulting viral supernatant was used to transduce HEK293T cells, which were then subsequently selected with puromycin to generate a stable cell line.
HEK293T cells carrying the ATF4 luciferase reporter were plated on polylysine coated 384-well plates (Greiner Bio-one) at 30,000 cells per well. Cells were treated the next day with 1 μg/mL tunicamycin and 200 nM of a compound of Formula (I) for 7 hours. Luminescence was measured using One Glo (Promega) as specified by the manufacturer. Cells were maintained in DMEM with L-glutamine supplemented with 10% heat-inactivated FBS (Gibco) and Antibiotic-Antimycotic solution (Gibco).
Table 4 below summarizes the EC50 data obtained using the ATF4-Luc assay for exemplary compounds of the invention.

Row | Compound | EC50 [nM]
1 | O=C(NC12CC(N3CCC(c4ccc(Cl)cc4)C3=O)(C1)C2)[C@H]1C[C@@H](O)c2cc(Cl)ccc2O1 (single isomer, unassigned) [Compound 226, (2R,4R)-6-chloro-N-{3-[(3S*)-3-(4-chlorophenyl)-2-oxopyrrolidin-1-yl]bicyclo[1.1.1]pentan-1-yl}-4-hydroxy-3,4-dihydro-2H-1-benzopyran-2-carboxamide] | 500 to 2000

Same assay, conditions: Homo sapiens, HEK-293T, 1 μg/mL tunicamycin, 7 hours, One Glo luminescence

Row | Compound | EC50 [nM]
2 | O=C(COc1ccc(Cl)c(F)c1)N[C@H]1C[C@H]2O[C@@H]1C[C@@H]2c1nnc([C@H]2C[C@@H](OC(F)(F)F)C2)o1 (racemic) [Compound 168, 2-(4-chloro-3-fluorophenoxy)-N-[rac-(1R,2S,4R,5S)-5-{5-[cis-3-(trifluoromethoxy)cyclobutyl]-1,3,4-oxadiazol-2-yl}-7-oxabicyclo[2.2.1]heptan-2-yl]acetamide] | 250 to 500
3 | O=C(NC12CCC(c3nnc([C@H]4C[C@@H](OC(F)(F)F)C4)o3)(CC1)CC2)[C@H]1C[C@@H](O)c2cc(Cl)ccc2O1 (racemic) [Compound 171, rac-(2R,4R)-6-chloro-4-hydroxy-N-(4-{5-[cis-3-(trifluoromethoxy)cyclobutyl]-1,3,4-oxadiazol-2-yl}bicyclo[2.2.2]octan-1-yl)-3,4-dihydro-2H-1-benzopyran-2-carboxamide] | < 10
4 | O=C(N[C@@H]1C[C@@H]2O[C@H]1C[C@H]2c1nnc([C@H]2C[C@@H](OC(F)(F)F)C2)o1)[C@@H]1C[C@@H](O)c2cc(Cl)ccc2O1 (racemic) [Compound 185, (2S,4R)-6-chloro-4-hydroxy-N-[(1RS,2SR,4RS,5SR)-5-{5-[cis-3-(trifluoromethoxy)cyclobutyl]-1,3,4-oxadiazol-2-yl}-7-oxabicyclo[2.2.1]heptan-2-yl]-3,4-dihydro-2H-1-benzopyran-2-carboxamide] | > 2000
5 | O=C(N[C@@H]1C[C@@H]2O[C@H]1C[C@H]2c1nnc([C@H]2C[C@@H](OC(F)(F)F)C2)o1)[C@@H]1C[C@H](O)c2cc(Cl)ccc2O1 (racemic) [Compound 186] | 10 to 50
6 | O=C(N[C@@H]1CC[C@@H](c2nnc([C@H]3C[C@@H](OC(F)(F)F)C3)o2)OC1)[C@@H]1C[C@H](O)c2cc(Cl)ccc2O1 (relative stereo) [Compound 170, (2S,4S)-6-chloro-4-hydroxy-N-[(3R,6S)-6-{5-[cis-3-(trifluoromethoxy)cyclobutyl]-1,3,4-oxadiazol-2-yl}oxan-3-yl]-3,4-dihydro-2H-1-benzopyran-2-carboxamide] | 250 to 500
7 | O=C(CO[C@H]1C[C@@H](OC(F)(F)F)C1)N[C@H]1C[C@H]2C[C@@H]1C[C@@H]2NC(=O)[C@H]1C[C@@H](O)c2cc(Cl)ccc2O1 (relative stereo) [Compound 210, (2R,4R)-6-chloro-4-hydroxy-N-[(1R*,2S*,4R*,5S*)-5-(2-{[cis-3-(trifluoromethoxy)cyclobutyl]oxy}acetamido)bicyclo[2.2.1]heptan-2-yl]-3,4-dihydro-2H-1-benzopyran-2-carboxamide] | < 10
8 | O=C(CO[C@H]1C[C@@H](OC(F)(F)F)C1)N[C@@H]1C[C@@H]2C[C@H]1C[C@H]2NC(=O)[C@H]1C[C@@H](O)c2cc(Cl)ccc2O1 (relative stereo) [Compound 211, (2R,4R)-6-chloro-4-hydroxy-N-[(1S*,2R*,4S*,5R*)-5-(2-{[cis-3-(trifluoromethoxy)cyclobutyl]oxy}acetamido)bicyclo[2.2.1]heptan-2-yl]-3,4-dihydro-2H-1-benzopyran-2-carboxamide] | < 10
9 | O=C(COc1ccc(Cl)c(F)c1)NC12CC(c3nnc([C@H]4C[C@@H](O)c5cc(Cl)ccc5O4)o3)(C1)C2 (relative stereo) [Compound 252, 2-(4-chloro-3-fluorophenoxy)-N-(3-{5-[(2R*,4R*)-6-chloro-4-hydroxy-3,4-dihydro-2H-1-benzopyran-2-yl]-1,3,4-oxadiazol-2-yl}bicyclo[1.1.1]pentan-1-yl)acetamide] | < 10
10 | O=C(COc1ccc(Cl)c(F)c1)NC12CC(c3nnc([C@@H]4C[C@H](O)c5cc(Cl)ccc5O4)o3)(C1)C2 (relative stereo) [Compound 253, 2-(4-chloro-3-fluorophenoxy)-N-(3-{5-[(2S*,4S*)-6-chloro-4-hydroxy-3,4-dihydro-2H-1-benzopyran-2-yl]-1,3,4-oxadiazol-2-yl}bicyclo[1.1.1]pentan-1-yl)acetamide] | 10 to 50
11 | O=C(NC12CC(c3nc(-c4ccc(Cl)c(F)c4)no3)(C1)C2)[C@@H]1C[C@H](O)c2cc(Cl)ccc2O1 (single isomer, unassigned) [Compound 199] | 50 to 250
12 | O=C(NC12CC(n3cnc(-c4ccc(C(F)(F)F)nc4)c3)(C1)C2)[C@@H]1C[C@H](O)c2cc(Cl)ccc2O1 (single isomer, unassigned) [Compound 200] | 50 to 250
13 | O=C(NC12CC(c3nc(-c4ccc(Cl)c(F)c4)no3)(C1)C2)[C@H]1C[C@@H](O)c2cc(Cl)ccc2O1 (single isomer, unassigned) [Compound 202] | < 10
14 | O=C(NC12CC(N3CCC(c4ccc(Cl)cc4)C3=O)(C1)C2)[C@H]1C[C@@H](O)c2cc(Cl)ccc2O1 (single isomer, unassigned) [Compound 225, (2R,4R)-6-chloro-N-{3-[(3R*)-3-(4-chlorophenyl)-2-oxopyrrolidin-1-yl]bicyclo[1.1.1]pentan-1-yl}-4-hydroxy-3,4-dihydro-2H-1-benzopyran-2-carboxamide] | 500 to 2000
15 | O=C(CO[C@H]1C[C@@H](OC(F)(F)F)C1)NC12CCC(NC(=O)[C@@H]3C[C@@H](O)c4cc(Cl)ccc4O3)(CC1)C[C@@H]2O (single isomer, unassigned) [Compound 279] | < 10
16 | O=C(CO[C@H]1C[C@@H](OC(F)(F)F)C1)NC12CC(NC(=O)[C@H]3C[C@H](O)c4cc(Cl)ccc4O3)(C1)C2 (single isomer, unassigned) [Compound 293] | < 10
17 | O=C1CC(C(=O)N[C@H]2C[C@H]3CC[C@@H](C2)N3CCCOc2ccc(Cl)cc2)Oc2ccc(Cl)cc21 (some centres unmarked) [Compound 101] | > 2000
18 | CN(C(=O)COc1ccc(Cl)c(F)c1)[C@H]1CC[C@H](NC(=O)[C@H]2C[C@@H](O)c3cc(Cl)ccc3O2)CC1 [Compound 102, (2R,4R)-6-chloro-N-[(1r,4R)-4-{[(4-chloro-3-fluorophenoxy)acetyl](methyl)amino}cyclohexyl]-4-hydroxy-3,4-dihydro-2H-1-benzopyran-2-carboxamide] | 10 to 50
19 | O=C(COc1ccc(Cl)c(F)c1)NC12CC(C(=O)NCC3CC(=O)c4cc(Cl)ccc4O3)(C1)C2 (centres unmarked) [Compound 103, 3-[2-(4-chloro-3-fluorophenoxy)acetamido]-N-[(6-chloro-4-oxo-3,4-dihydro-2H-1-benzopyran-2-yl)methyl]bicyclo[1.1.1]pentane-1-carboxamide] | 50 to 250
20 | O=C(N[C@H]1CC[C@H](C(=O)NCc2ccc(C(F)(F)F)cn2)CC1)[C@H]1C[C@@H](O)c2cc(Cl)ccc2O1 [Compound 105] | < 10
21 | O=C1C[C@H](C(=O)NC23CCC(C(=O)NCc4ccc(C(F)(F)F)cn4)(CC2)CC3)Oc2ccc(Cl)cc21 [Compound 106, (2R)-6-chloro-4-oxo-N-[4-({[5-(trifluoromethyl)pyridin-2-yl]methyl}carbamoyl)bicyclo[2.2.2]octan-1-yl]-3,4-dihydro-2H-1-benzopyran-2-carboxamide] | 10 to 50
22 | O=C(NC12CCC(C(=O)NCc3ccc(C(F)(F)F)cn3)(CC1)CC2)[C@H]1C[C@@H](O)c2cc(Cl)ccc2O1 [Compound 107, (2R,4R)-6-chloro-4-hydroxy-N-[4-({[5-(trifluoromethyl)pyridin-2-yl]methyl}carbamoyl)bicyclo[2.2.2]octan-1-yl]-3,4-dihydro-2H-1-benzopyran-2-carboxamide] | < 10
23 | O=C1C[C@H](C(=O)NC23CC(c4nnc(COc5ccc(Cl)c(F)c5)o4)(C2)C3)Oc2ccc(Cl)cc21 [Compound 108, (2R)-6-chloro-N-(3-{5-[(4-chloro-3-fluorophenoxy)methyl]-1,3,4-oxadiazol-2-yl}bicyclo[1.1.1]pentan-1-yl)-4-oxo-3,4-dihydro-2H-1-benzopyran-2-carboxamide] | < 10
24 | O=C1C[C@@H](C(=O)NC23CC(c4nnc(COc5ccc(Cl)c(F)c5)o4)(C2)C3)Oc2ccc(Cl)cc21 [Compound 109, (2S)-6-chloro-N-(3-{5-[(4-chloro-3-fluorophenoxy)methyl]-1,3,4-oxadiazol-2-yl}bicyclo[1.1.1]pentan-1-yl)-4-oxo-3,4-dihydro-2H-1-benzopyran-2-carboxamide] | 10 to 50
25 | O=C(NC12CC(c3nnc(COc4ccc(Cl)c(F)c4)o3)(C1)C2)[C@H]1C[C@@H](O)c2cc(Cl)ccc2O1 [Compound 110, (2R,4R)-6-chloro-N-(3-{5-[(4-chloro-3-fluorophenoxy)methyl]-1,3,4-oxadiazol-2-yl}bicyclo[1.1.1]pentan-1-yl)-4-hydroxy-3,4-dihydro-2H-1-benzopyran-2-carboxamide] | < 10
26 | O=C(NC12CC(c3nnc(COc4ccc(Cl)c(F)c4)o3)(C1)C2)[C@@H]1C[C@H](O)c2cc(Cl)ccc2O1 [Compound 111, (2S,4S)-6-chloro-N-(3-{5-[(4-chloro-3-fluorophenoxy)methyl]-1,3,4-oxadiazol-2-yl}bicyclo[1.1.1]pentan-1-yl)-4-hydroxy-3,4-dihydro-2H-1-benzopyran-2-carboxamide] | 10 to 50
